# Measured values: patent publication US20260048155A1, “BIOCOMPATIBLE PARAHYDROGEN HYPERPOLARIZED SOLUTIONS BY PRECIPITATION AND RE-DISSOLUTION” (North Carolina State University, priority 2022, published 2026)
# Values joined by “and” are separate entries in the source; they are usually repeats but may differ in a detail not shown here. Equal entries are not always repeated.
# Test: SABRE-SHEATH hyperpolarization, 13C polarization quantified at 1.4 T benchtop NMR
# Format: physicochemical
# Experimental: A previously reported setup and experimental protocol has been used to prepare high P13C of up to ≈14.5% of 30 mM [1-^13C]pyruvate in methanol, which was confirmed after transferring the HP samples from the polarizer into a 1.4 T benchtop ^1H/^13C NMR system. The mean of N=19 experiments from 9 samples measured on 5 different days under the same conditions was 8±2%. […] These hyperpolarization values correspond to ^13C enhancement ε13C of ≈75,000-fold. The optimal experimental parameters are obtained via sweeping the static magnetic field (optimum transfer field BT≈0.4 μT) and temperature (TT≈10° C.) using a p-H2 flow rate of 75 standard cubic centimeters per minute (scc/m), and ≈7 bar total pressure, FIGS. 4A-4B, respectively.
# CD3OD is widely used as the SABRE-reaction-hosting solvent because it provides convenient means of attaining high-field NMR spectrometer lock. However, non-deuterated polarization media may be preferred for biomedical applications. For this reason, systematic relaxation dynamics studies were performed comparing CD3OD, CH3OH, and C2H5OH for SABRE-SHEATH [1-^13C]pyruvate hyperpolarization, investigating relevant parameters for these solvents and for fixed concentrations of pyruvate, SABRE catalyst, and DMSO (30 mM, 6 mM, and 40 mM, respectively). However, the ethanol sample was prepared with only 6 mM pyruvate and 10% H2O due to limited solubility. The optimal Br was similar in all investigated samples (≈0.4 μT, FIG. 4A). […] (FIG. 4B). Thus, all the experiments described below were performed using these optimized Br and Tr parameters.
# Preparation of samples: Parahydrogen was enriched to >99.10% and filled into aluminum cylinders at 350 psi using a setup described previously. The SABRE samples were prepared in CD3OD (CAS: DLM-24-25), CH3OH (CAS: 67-56-1), or ethanol (CAS: 64-17-5) using the stated concentration of sodium pyruvate (in most cases 30 mM, natural abundance—CAS: 113-24-6; [1-^13C]-labeled—CAS: 490709-250 MG), an iridium catalyst at 6 mM concentration synthesized as described previously, doped with 40 mM dimethyl sulfoxide (DMSO) to block one active center of the catalyst and to avoid pyruvate from binding to the catalyst at two sites. Oxygen was removed from the samples by guiding argon gas at approximately ambient pressure through the samples for ˜1 min. Also, oxygen was removed from all solvents used for the preparation of the samples (methanol or ethanol) or for the precipitation of pyruvate (ethyl acetate (EtAc), room temperature, CAS: 141-78-6) prior to mixing them to the catalyst substrate solutions. For the SABRE experiments, the samples were filled into medium wall, or in case of precipitation studies, into regular wall NMR tubes (SKU: WG-1000-8, outer diameter 5 mm, inner diameter 4 mm and length 8 inches). Note that the total volume of the catalyst-substrate sample was 600 μL (in the baseline and solvent study) or 100 μL in experiments were precipitation and phase separation were performed. In case of dissolution SABRE, 300 μL of room-temperature H2O (HPLC grade-submicron filtered) or D2O (CAS: 7789-20-0) were added.
# SABRE hyperpolarization setup: The experimental setup has been used previously but will be described in much greater detail elsewhere. Briefly, it consisted of a 3-layer mu-metal of 3″ I.D. and 9″ DEPTH to shield external magnetic fields (Magnetic Shield Corporation, ZG-203), combined with a custom-made solenoid to generate a static magnetic field, B0, of ˜300 nT (28 AWG wire, 650 windings, 7″ homogeneous length). Note that this coil provided a constant magnetic field here (5 VDC power supply connected to the solenoid via a resistor board to regulate the current and effectively set the magnetic field). […]
smiles,measurement,setting,value
CC(=O)[13C](=O)O [[1-^13C]pyruvate],fold lower P13C compared to CH3OH and CD3OD,6 mM in 90% C2H5OH + 10% H2O,1.4 fold
same,P13C,"30 mM in CD3OD, representative polarization build-up at 0.4 μT",8.5±0.1%
same,P13C,"30 mM in CH3OH, representative polarization build-up at 0.4 μT",7.8±0.1%
same,"P13C, mean","30 mM in methanol, N=19 experiments from 9 samples on 5 days, inter-day mean with s.d.",8±2%
same,"P13C, maximum","30 mM in methanol, SABRE-SHEATH, detected at 1.4 T",≈ 14.5% and 14.5%
same,P13C,"60 mM in CH3OH, 6 mM catalyst, p-H2 80 scc/m",3.7±0.06%
same,"P13C, mean base-line before precipitation","in CH3OH, batch used for filtering tests",10±1%
same,13C enhancement ε13C,"in methanol, vs thermal polarization at 1.4 T","≈ 75,000 fold"
